{"source": "patent US20180289655A1", "about": "“Methods and Compositions for the Intravenous Administration of Fumarates for the Treatment of Neurological Diseases” (Biogen MA Inc., priority 2015, published 2018)", "key": {"[1]": {"tested_on": "prototypical Nrf2 response genes (Akr1b8, Gclc, Hmox1, Nqo1, Txnrd1, Osgin1)", "assay": "qRT-PCR of Nrf2 response genes in tissues after DMF PO or IV", "format": "in vivo, Sprague-Dawley rats", "conditions": "for Nrf2 genes significantly modulated, forebrain / Nrf2 genes significantly modulated, jejunum / Nrf2 genes significantly modulated, kidney / Nrf2 genes significantly modulated, cerebellum / Nrf2 genes significantly modulated, spleen: 2 and 6 hours, vs vehicle", "description": "On Day 5 of the study 3 time points were evaluated: 10 minutes, 2 hours, and 6 hours after dosing, as illustrated in the timeline. At each time point, 5 animals from each group were sacrificed. At the 2 and 6 hour time points, the tissue samples from groups E, F, I, and J from each animal were split, with half of the tissue being processed for MMF exposure, and half processed for qRT-PCR. Note vehicle groups (C, D, G, and H) were not processed for MMF measurement and only used for qRT-PCR.\nTwo and 6 hours after dosing, cohorts of animals from Groups C, D, E and F and G, H, I and J, respectively, were sacrificed and tissues (forebrain, cerebellum, jejunum, kidney, and spleen) were collected for RNA analysis by qRT-PCR for expression of prototypical Nrf2 response genes.\nFor RNA preparation, frozen tissues were placed in 2 mL RNAse-free 96-well blocks with 1.5 mL QIAzol Lysis Reagent (QIAgen) and a 3.2 mm stainless steel bead (BioSpec Products, Bartlesville, Okla.). Tissues were disrupted for four cycles of 45 seconds in a Mini-Beadbeater (Biospec Products). RNA was extracted in chloroform and the aqueous phase was mixed with an equal volume of 70% ethanol. Extracted RNA was applied to RNeasy 96 plates and purified by the spin method according to the manufacturer's protocol (RNeasy 96 Universal Tissue Protocol, QIAgen, Hilden Germany).\nSamples were reverse-transcribed into cDNA according to the manufacturer's protocols (Life Technologies, Carlsbad, Calif.) and analyzed by real-time polymerase chain reaction (qPCR). Rat target gene primers and 6-FAM™ dye-labeled TaqMan® MGB™ probes (Life Technologies) were used. Reactions containing 100 ng of cDNA, 900 nM of each primer, and 250 nM TaqMan probes were cycled on a QuantStudio 12 k-flex system (Life Technologies) once for 10 minutes at 95° C., followed by 40 cycles of 95° C. for 10 seconds and 60° C. for 1 minute. All samples were measured in triplicate with Gapdh as a normalizing gene. Taqman primer/probe sets from Life Technologies included: Akr1b8 (Rn00756513_m1); Gclc (Rn00689046_m1); Hmox1 (Rn01536933_m1); Nqo1 (Rn00566528_m1); Txnrd1 (Rn01503798_m1); Osgin1 (Rn00593303_m1) and Gapdh (Rn01775763_g1). Final analysis was performed using the comparative CT method to calculate fold changes and samples were normalized relative to vehicle controls at each time point. In all graphs, the mean fold-change (±standard deviation) is depicted."}, "[2]": {"assay": "Tail histopathology for DMF IV multi-dose tolerability", "format": "in vivo, C57BL/6 mice", "conditions": "Study 3, DMF IV 30 mg/kg once a day for 5 consecutive days", "description": "Tissue samples were preserved in 10% neutral buffered formalin (NBF) and then transferred to the Translational Pathology Laboratory for processing into paraffin blocks, slide preparation, and hematoxylin and eosin staining. Histopathology evaluation of the stained slides was performed by the Biogen Idec Comparative Pathology department (data not provided herein).\nA CBC with differential panel was performed at 10 minutes post-last dose via facial vein bleeding, and at 2 hours after the last dose, pharmacodynamic Nrf2 transcriptional responses were analyzed in tissues from the same animals. Histopathology was also performed on regions of the tail in a pilot toxicology study."}, "[3]": {"tested_on": "malonate-induced striatal lesion in rats", "assay": "Immunofluorescence microscopy (NeuN, GFAP) of lesioned rat brain sections", "format": "in vivo, Sprague-Dawley rats", "conditions": "DMF p.o. 100 mg/kg and vehicle", "description": "For tissue to be analyzed by immunofluorescence, animals were anesthetized and transcardially perfused with 4% paraformaldehyde. Brains were removed and post-fixed overnight at 4° C. Tissue was then transferred to 30% sucrose in PBS. Serial 25-μM frozen sections were cut in the coronal plane and air-dried onto gelatin-coated glass slides. All tissue sections were washed in PBS and blocked with 5% normal goat serum in solution with 0.1% Triton X-100/PBS for 45 minutes at room temperature. Sections were then incubated with monoclonal anti-NeuN (1:500; Millipore, Temecula, Calif., USA) for neurons and polyclonal anti-glial fibrillary acidic protein (GFAP) (1:600) for astrocytes in blocking solution overnight at 4° C. Secondary antibody incubations were for 1 hour at room temperature. All immunofluorescence images were acquired with Openlab and Spectrum software."}, "[4]": {"assay": "24-hour equilibrium solubility of DMF in water", "format": "physicochemical", "conditions": "thermodynamic from solid", "description": "Samples were then filtrated at the measuring temperatures through a 0.2 μm filter unit, and the concentrations of the filtrate were determined using HPLC. The solids in equilibrium were confirmed, by FT-Raman technique, to be the same form as the starting material."}, "[5]": {"assay": "DMF IV formulation development: solubility in solvents and excipient vehicles", "format": "physicochemical", "description": "2. […] For example, 2% DMSO (0.1 ml/kg/5 ml/kg*100%=2.0%), 10% PEG400 (1 ml/kg/5 ml/kg*50%=10%) and 20% Captisol (sulfobutyl ether cyclodextrin) (5 ml/kg/5 ml/kg*20%=20%) could be used for rodent IV formulation assumed the dosage of 5 ml/kg. 3. […] The studies were performed by making the PEG400 stock solution and diluting the solution with different vehicles (Table 16). […] 4."}}, "note": "Entries after “also recorded” stand apart in the source; their conditions may differ. Structures can show the parent of a compound that is named as a salt."}
{"molecule": "COC(=O)/C=C/C(=O)OC", "note": "[DMF, dimethyl fumarate]", "values": [{"measurement": "Nrf2 genes significantly modulated, forebrain", "setting": "[1]; DMF IV 30 mg/kg", "value": "significant modulation of Nqo1, Osgin1, Akr1b8, and Hmox1 at both 2 and 6 hours"}, {"measurement": "Nrf2 genes significantly modulated, jejunum", "setting": "[1]; DMF IV 30 mg/kg", "value": "significant increases were observed for Nqo1 and Hmox1 at 6 hours, and in Osgin1 expression at 2 hours"}, {"measurement": "Nrf2 genes significantly modulated, kidney", "setting": "[1]; DMF IV 30 mg/kg", "value": "significant modulation of Nqo1 and Txnrd1 at 2 and 6 hours, and Hmox1 only at 2 hours"}, {"measurement": "Nrf2 genes significantly modulated, cerebellum", "setting": "[1]; DMF IV 30 mg/kg, 30 mg/kg", "value": "significant modulation was observed for Nqo1, Osgin1, Akr1b8, and Hmox1 at both 2 and 6 hours; also recorded: significant increase in the transcriptional responses of Gclc and Txnrd1 in the cerebellum, but only at the later 6-hour time point"}, {"measurement": "Nrf2 genes significantly modulated, spleen", "setting": "[1]; DMF IV 30 mg/kg, 30 mg/kg", "value": "significant transcriptional increases were noted for Osgin1 at both 2 and 6 hour time points; also recorded: significant changes in Akr1b8 and Txnrd1 were observed only at the 2 hour time point; also recorded: A significant change in Nqo1 was also found 6 hours after DMF IV dosing"}, {"measurement": "Hmox1 expression in spleen", "setting": "[1]; DMF PO 100 mg/kg or IV 30 mg/kg", "value": "No changes were observed"}, {"measurement": "Nrf2 genes significantly modulated, cerebellum", "setting": "[1]; DMF PO 100 mg/kg", "value": "significant modulation of 3 genes in cerebellar tissue: Osgin1 at 2 and 6 hours, Akr1b8 at 2 hours, and Hmox1 at the 6 hour time point"}, {"measurement": "Nrf2 genes significantly modulated, forebrain", "setting": "[1]; DMF PO 100 mg/kg", "value": "modulation of only two genes: Osgin1 at 2 and 6 hours and Akr1b8 only at 2 hours"}, {"measurement": "Nrf2 genes significantly modulated, spleen", "setting": "[1]; DMF PO 100 mg/kg", "value": "significant increases in Nqo1, Osgin1, Akr1b8, Gclc, and Txnrd1 at both 2 and 6 hours"}, {"measurement": "Nrf2 genes significantly modulated, jejunum", "setting": "[1]; DMF PO 100 mg/kg, 100 mg/kg", "value": "significant increases in Osgin1, Akr1b8, and Txnrd1 at both 2 and 6 hours; also recorded: Nqo1 expression was increased after PO DMF dosing only at the 6-hour time point; also recorded: significant increases in Gclc and Hmox1 were observed at the 2-hour time point"}, {"measurement": "Nrf2 genes significantly modulated, kidney", "setting": "[1]; DMF PO 100 mg/kg, 100 mg/kg", "value": "significant changes at both 2 and 6 hour time points for Nqo1, Hmox1, and Txnrd1; also recorded: Osgin1 was significantly modulated only at the 2 hour time point"}, {"measurement": "Relationship of MMF exposure (10 minutes) and pharmacodynamic response (2 or 6 hours)", "setting": "[1]; forebrain, kidney and spleen, PO 100 mg/kg and IV 30 mg/kg", "value": "clear positive correlation in MMF exposure and pharmacodynamic response"}, {"measurement": "Tail histology near the injection site", "setting": "[2]", "value": "changes similar to that which was observed in vehicle control mice; also recorded: did not reveal any treatment-related findings"}, {"measurement": "Astrocytes (GFAP) near the lesion border", "setting": "[3]", "value": "Astrocytes appear to survive in both vehicle and DMF treated animals"}, {"measurement": "solubility at 24 h", "setting": "[4]; 20 ° C., 24 hours", "value": 2700, "unit": "µg/mL"}, {"measurement": "solubility at 24 h", "setting": "[4]; 35 ° C., 24 hours", "value": 3500, "unit": "µg/mL"}, {"measurement": "solubility at 24 h", "setting": "[4]; 50 ° C., 24 hours", "value": 5500, "unit": "µg/mL"}, {"measurement": "solubility at 24 h", "setting": "[4]; ambient temperature", "value": 2700, "unit": "µg/mL"}, {"measurement": "Solution or precipitated", "setting": "[5]; 5 mg/ml DMF in 15% HPbCD, heating then cooling to room temperature, final pH 3.51", "value": "solution"}, {"measurement": "Solution or precipitated", "setting": "[5]; 5 mg/ml DMF in 20% Captisol, heating then cooling to room temperature, final pH 4.71", "value": "clear solution could be achieved"}, {"measurement": "Suitable for 5 mg/ml dosage?", "setting": "[5]; 10% PEG400 + 0.5% HPMC", "value": "No"}, {"measurement": "Suitable for 5 mg/ml dosage?", "setting": "[5]; 10% PEG400 + 0.5% HPMC + 0.2% SDS", "value": "No"}, {"measurement": "Solution or precipitated", "setting": "[5]; 10% PEG400 + 0.5% HPMC + 0.2% SDS, final concentration 2.8 mg/ml", "value": "precipitated"}, {"measurement": "Solution or precipitated", "setting": "[5]; 10% PEG400 + 0.5% HPMC, final concentration 2.8 mg/ml", "value": "precipitated"}, {"measurement": "Suitable for 5 mg/ml dosage?", "setting": "[5]; 10% PEG400 + 1.5% Poloxamer 188", "value": "No"}, {"measurement": "Solution or precipitated", "setting": "[5]; 10% PEG400 + 1.5% Poloxamer 188, final concentration 2.8 mg/ml", "value": "precipitated"}, {"measurement": "Suitable for 5 mg/ml dosage?", "setting": "[5]; 10% PEG400 + 1.5% Poloxamer 237", "value": "No"}, {"measurement": "Solution or precipitated", "setting": "[5]; 10% PEG400 + 1.5% Poloxamer 237, final concentration 2.8 mg/ml", "value": "precipitated"}, {"measurement": "Suitable for 5 mg/ml dosage?", "setting": "[5]; 10% PEG400 + 2.0% Tween 80", "value": "No"}, {"measurement": "Solution or precipitated", "setting": "[5]; 10% PEG400 + 2.0% Tween 80, final concentration 2.8 mg/ml", "value": "precipitated"}, {"measurement": "Suitable for 5 mg/ml dosage?", "setting": "[5]; 10% PEG400 + 15% HPbCD", "value": "Might be"}, {"measurement": "Solution or precipitated", "setting": "[5]; 10% PEG400 + 15% HPbCD, final concentration 2.8 mg/ml", "value": "generated clear solutions at 2.8 mg/ml; also recorded: Clear solution"}, {"measurement": "Suitable for 5 mg/ml dosage?", "setting": "[5]; 10% PEG400 + 20% Captisol", "value": "Might be"}, {"measurement": "Solution or precipitated", "setting": "[5]; 10% PEG400 + 20% Captisol, final concentration 2.8 mg/ml", "value": "generated clear solutions at 2.8 mg/ml; also recorded: Clear solution"}, {"measurement": "Suitable for 5 mg/ml dosage?", "setting": "[5]; 10% PEG400 + D5W", "value": "No"}, {"measurement": "Suitable for 5 mg/ml dosage?", "setting": "[5]; 10% PEG400 + D5W phosphate buffer (pH 6.0)", "value": "No"}, {"measurement": "Solution or precipitated", "setting": "[5]; 10% PEG400 + D5W phosphate buffer (pH 6.0), final concentration 2.8 mg/ml", "value": "precipitated"}, {"measurement": "Solution or precipitated", "setting": "[5]; 10% PEG400 + D5W, final concentration 2.8 mg/ml", "value": "precipitated"}, {"measurement": "Suitable for 5 mg/ml dosage?", "setting": "[5]; 10% PEG400 + H2O", "value": "No"}, {"measurement": "Solution or precipitated", "setting": "[5]; 10% PEG400 + H2O, final concentration 2.8 mg/ml", "value": "precipitated"}, {"measurement": "Suitable for 5 mg/ml dosage?", "setting": "[5]; 10% PEG400 + Saline (pH 7)", "value": "No"}, {"measurement": "Solution or precipitated", "setting": "[5]; 10% PEG400 + Saline (pH 7), final concentration 2.8 mg/ml", "value": "precipitated"}, {"measurement": "Suitable for 5 mg/ml dosage?", "setting": "[5]; 20% Captisol, final pH 4.71", "value": "Might be, 5 mg/ml solution could be"}, {"measurement": "solubility", "setting": "[5]; DMSO (pure solvent), organic solvent or mixture", "value": "23000 to 29000", "unit": "µg/mL"}, {"measurement": "solubility", "setting": "[5]; PEG400, organic solvent or mixture", "value": "38000 to 46000", "unit": "µg/mL"}, {"measurement": "solubility", "setting": "[5]; ethanol, organic solvent or mixture", "value": "< 20000", "unit": "µg/mL"}, {"measurement": "solubility", "setting": "[5]; organic solvent or mixture, propylene Glycol (PG)", "value": "< 20000", "unit": "µg/mL"}]}
